Laboratory results taken from US20250051327A1, “MALT-1 MODULATORS” (EXSCIENTIA AI LIMITED, priority 2020, published 2025).

Tests used:
[1] = system: IL-2 secretion by human effector memory T cells (TEM); assay: Effector memory T cells IL-2 release assay; assay type: cell-based; conditions: T-cell; human CD4+ effector memory T cells, CD3/CD28 bead stimulation, 24 h; read-out: CD4TC IL2 IC50
Procedure, shortened: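 Human CD4+ effector memory T cells from healthy-donor buffy coats were stimulated with anti-CD3/CD28 Dynabeads and exposed to 10 semi-log compound doses (0.1% DMSO) for 24 h at 37 °C. Supernatant IL-2 was measured by HTRF, and IC50 came from a 4-parameter logistic fit to maximal IL-2. Viability was checked by flow cytometry.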

[2] = biological target: Recombinant human MALT-1 (amino acids 340-824) (Homo sapiens (Human), UniProt Q9UDY8); assay: MALT-1 inhibition assay (fluorogenic substrate Ac-LRSR-Rh110-DP); assay type: biochemical; conditions: recombinant human MALT-1, substrate Ac-LRSR-Rh110-DP
Procedure, shortened: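 MALT-1 at 3 nM final was reacted with 10 μM Ac-LRSR-Rh110-DP, with substrate addition starting the reaction. Incubation ran 60 minutes at 25° C in the dark. Percent inhibition from fluorescence across doses was fitted to a 4-parameter logistic to give IC50.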

Recombinant human MALT-1 (amino acids 340-824), sequence (Q9UDY8 340-824): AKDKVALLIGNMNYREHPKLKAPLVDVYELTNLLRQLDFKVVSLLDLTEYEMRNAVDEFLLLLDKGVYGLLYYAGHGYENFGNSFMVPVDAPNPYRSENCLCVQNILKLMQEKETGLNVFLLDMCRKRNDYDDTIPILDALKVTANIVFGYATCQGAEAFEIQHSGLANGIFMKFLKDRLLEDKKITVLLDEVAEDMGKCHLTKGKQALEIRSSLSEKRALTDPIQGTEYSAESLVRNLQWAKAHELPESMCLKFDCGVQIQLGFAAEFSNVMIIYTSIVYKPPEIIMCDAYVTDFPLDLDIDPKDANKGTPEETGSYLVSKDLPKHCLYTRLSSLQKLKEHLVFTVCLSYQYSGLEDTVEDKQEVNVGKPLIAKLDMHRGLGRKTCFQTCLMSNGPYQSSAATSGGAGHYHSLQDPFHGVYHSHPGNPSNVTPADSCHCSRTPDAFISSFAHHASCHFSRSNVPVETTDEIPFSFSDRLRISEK

Compound	IC50 [1] [nM]	IC50 [2] [nM]
COc1cc2ncc3c(n2n1)CCCN3c1ccc([C@H](N(C)C(=O)C2CCS(=O)(=O)CC2)C(F)(F)F)cc1 [CPD0019576, N-methyl-1,1-dioxo-N-[(1S)-2,2,2-trifluoro-1-(4-{4-methoxy-2,3,7,10-tetraazatricyclo[7.4.0.0^2,6]trideca-1(9),3,5,7-tetraen-10-yl}phenyl)ethyl]-1λ^6-thiane-4-carboxamide]	1250	313
COc1ccc2ncc(Nc3ccc([C@H](N(C)C(=O)[C@H]4CCN(C(=O)CO)C4)C(F)(F)F)cc3)c([C@H](C)OC)c2n1 (relative stereo) [CPD0075882, (3 rel S)-1-(2-hydroxyacetyl)-N-methyl-N-[(1S)-2,2,2-trifluoro-1-[4-[[6-methoxy-4-[(1 rel S)-1-methoxyethyl]-1,5-naphthyridin-3-yl]amino]phenyl]ethyl]pyrrolidine-3-carboxamide]	40	64
CN(C(=O)[C@H]1CCC(=O)NC1)[C@@H](c1ccc(N2CCCc3c2cnc2cc(Cl)nn32)cc1)C(F)(F)F (relative stereo) [CPD0073569, (3rel-S)-N-[(1S)-1-(4-{4-chloro-2,3,7,10-tetraazatricyclo[7.4.0.0^2,6]trideca-1(9),3,5,7-tetraen-10-yl}phenyl)-2,2,2-trifluoroethyl]-N-methyl-6-oxopiperidine-3-carboxamide]	140	47
CN(C(=O)[C@H]1C[C@](O)(C(F)(F)F)C1)[C@@H](c1ccc(N2CCCc3c2cnc2cc(Cl)nn32)cc1)C(F)(F)F [CPD0072441, (1s,3s)-N-[(1S)-1-(4-{4-chloro-2,3,7,10-tetraazatricyclo[7.4.0.0^2,6]trideca-1(9),3,5,7-tetraen-10-yl}phenyl)-2,2,2-trifluoroethyl]-3-hydroxy-N-methyl-3-(trifluoromethyl)cyclobutane-1-carboxamide]	222	113
CN(C(=O)[C@@H]1CCN(C(=O)CO)C1)[C@@H](c1ccc(N2CCCc3c2cnc2cc(Cl)nn32)cc1)C(F)(F)F (relative stereo) [CPD0073976, (3 rel-R)—N-[(1S)-1-(4-{4-chloro-2,3,7,10-tetraazatricyclo[7.4.0.0^2,6]trideca-1(9),3,5,7-tetraen-10-yl}phenyl)-2,2,2-trifluoroethyl]-1-(2-hydroxyacetyl)-N-methylpyrrolidine-3-carboxamide]	149	57
COc1ccc2ncc(Nc3ccc([C@H](N(C)C(=O)C4CCS(=O)(=O)CC4)C(F)(F)F)cc3)cc2n1 [CPD0018619, N-methyl-1,1-dioxo-N-[(1S)-2,2,2-trifluoro-1-[4-[(6-methoxy-1,5-naphthyridin-3-yl)amino]phenyl]ethyl]thiane-4-carboxamide]	190	361
CN(C(=O)[C@@H](O)C1CCS(=O)(=O)CC1)[C@@H](c1ccc(N2CCCc3c2cnc2cc(Cl)nn32)cc1)C(F)(F)F (relative stereo) [CPD0073973, (2rel-S)—N-[(1S)-1-(4-{4-chloro-2,3,7,10-tetraazatricyclo[7.4.0.0^2,6]trideca-1(9),3,5,7-tetraen-10-yl}phenyl)-2,2,2-trifluoroethyl]-2-(1,1-dioxo-1λ^e-thian-4-yl)-2-hydroxy-N-methylacetamide]	149	57
CN(C(=O)C12CN(C1)S(=O)(=O)C2)[C@@H](c1ccc(N2CCCc3c2cnc2cc(Cl)nn32)cc1)C(F)(F)F [CPD0073087, N-[(1S)-1-(4-{4-chloro-2,3,7,10-tetraazatricyclo[7.4.0.0^2,6]trideca-1(9),3,5,7-tetraen-10-yl}phenyl)-2,2,2-trifluoroethyl]-N-methyl-2,2-dioxo-2λ^6-thia-1-azabicyclo[2.1.1]hexane-4-carboxamide]	103	78
CC(=O)N1CC[C@H](C(=O)N(C)[C@@H](c2ccc(N3CCCc4c3cnc3cc(Cl)nn43)cc2)C(F)(F)F)C1 (relative stereo) [CPD0073189, (3rel-S)-1-acetyl-N-[(1S)-1-(4-{4-chloro-2,3,7,10-tetraazatricyclo[7.4.0.0^2,6]trideca-1(9),3,5,7-tetraen-10-yl}phenyl)-2,2,2-trifluoroethyl]-N-methylpyrrolidine-3-carboxamide]	160	76
COC(=O)N(C)[C@@H](c1ccc(N2CCCc3c2cnc2cc(Cl)nn32)cc1)C(F)(F)F [CPD0021733, Methyl N-[(1S)-1-(4-{4-chloro-2,3,7,10-tetraazatricyclo[7.4.0.0^2,6]trideca-1(9),3,5,7-tetraen-10-yl}phenyl)-2,2,2-trifluoroethyl]-N-methylcarbamate]	412	339
CN(C(=O)C1CS(=O)(=O)C1)[C@@H](c1ccc(N2CCCc3c2cnc2cc(Cl)nn32)cc1)C(F)(F)F [CPD0021575, N-[(1S)-1-(4-{4-chloro-2,3,7,10-tetraazatricyclo[7.4.0.0^2,6]trideca-1(9),3,5,7-tetraen-10-yl}phenyl)-2,2,2-trifluoroethyl]-N-methyl-1,1-dioxo-1λ^6-thietane-3-carboxamide]	128	123
CC1CCN(c2ccc([C@H](N(C)C(=O)C3CCS(=O)(=O)CC3)C(F)(F)F)cn2)c2cnc3cc(Cl)nn3c21 (stereo partly drawn) [CPD0021812, N-[(1S)-1-(6-{4-chloro-13-methyl-2,3,7,10-tetraazatricyclo[7.4.0.0^2,6]trideca-1(9),3,5,7-tetraen-10-yl}pyridin-3-yl)-2,2,2-trifluoroethyl]-N-methyl-1,1-dioxo-1λ^6-thiane-4-carboxamide]	213	108
COc1ccc2ncc(Nc3ccc([C@@H](N(C)C(=O)[C@H]4CC[S@@](=N)(=O)CC4)C(F)(F)F)cc3)c([C@H](C)OC)c2n1 (relative stereo) [CPD0077186, (1 rel-r,4rel-s)-1-imino-N-methyl-1-oxo-N-[(1R)-2,2,2-trifluoro-1-[4-({6-methoxy-4-[(1 rel-S)-1-methoxyethyl]-1,5-naphthyridin-3-yl}amino)phenyl]ethyl]-1λ^6-thiane-4-carboxamide]	158	126
CN(C(=O)[C@@H]1CCC(=O)N1)[C@@H](c1ccc(N2CCCc3c2cnc2cc(Cl)nn32)cc1)C(F)(F)F (relative stereo) [CPD0073566, (2rel-S)-N-[(1S)-1-(4-{4-chloro-2,3,7,10-tetraazatricyclo[7.4.0.0^2,6]trideca-1(9),3,5,7-tetraen-10-yl}phenyl)-2,2,2-trifluoroethyl]-N-methyl-5-oxopyrrolidine-2-carboxamide]	241	76
C[C@@H]1CCN(c2ccc([C@H](N(C)C(=O)[C@H]3CC[S@](=N)(=O)CC3)C(F)(F)F)cc2)c2cnc3cc(Cl)nn3c21 (relative stereo) [CPD0073193, (1rel-r,4rel-r)-N-[(1S)-1-{4-[(13rel-R)-4-chloro-13-methyl-2,3,7,10-tetraazatricyclo[7.4.0.0^2,6]trideca-1(9),3,5,7-tetraen-10-yl]phenyl}-2,2,2-trifluoroethyl]-1-imino-N-methyl-1-oxo-1λ^6-thiane-4-carboxamide]	68	22
